Here are results for two compounds from patent US4318916A, “Antibiotic PS-5 and derivatives having β-lactamase inhibitory activity and production thereof” (Sanraku-Ocean Co., Ltd., priority 1977, dated 1982).

Data set [1] has as its system Staphylococcus aureus Smith. As to the kind of experiment: Therapeutic activity of antibiotic PS-5 sodium salt in infected mice. It is filed as in vivo. To be noted: mice infected with pathogenic Gram-positive bacteria. An excerpt:
The therapeutic activity of the antibiotic PS-5 sodium salt was studied by treating mice intraperitoneally infected with 5×10^5 cells/mouse of Staphylococcus aureus Smith. Soon after the infection, an aqueous solution of the antibiotic PS-5 sodium salt was subcutaneously injected.

Data set [2] concerns Proteus vulgaris P-5. As to the kind of experiment: Filter paper strip synergism test. The class given is cell-based. To be noted: Proteus vulgaris P-5 (beta-lactamase producer); crossed filter paper strips, 18 hours at 35° C. As for the experimental part:
On an assay plate of nutrient agar seeded by a beta-lactam-resistant strain of Proteus vulgaris P-5 (beta-lactamase producer), two filter paper strips containing penicillin G or cephaloridine and two strips containing antibiotic PS-5 were applied to form a square where two strips of the […] antibiotic were contacted at one corner. The antimicrobial activity was read after incubation for 18 hours at 35° C. When suitable concentrations of penicillin G or cephaloridine and antibiotic PS-5 were chosen, the inhibition area was observed only at the corners where both antibiotic PS-5 and penicillin G or cephaloridine were present, but not at the corners where antibiotic PS-5, penicillin G or cephaloridine was solely present. […] That is, when two kinds of compounds were combined at concentrations that were low enough not to give an inhibition zone with a component alone, the large inhibition thus appearing with the combination was due to synergism.

Data set [3] has as its system Proteus vulgaris P-5. As to the kind of experiment: Potentiation disc assay of trityl ester (Table 14). It is filed as cell-based. To be noted: for Halo of inhibition Cephaloridine added: 50 μg/ml cephaloridine in base agar. As for the experimental part: (§1) (A) Assay Petri dishes (9 cm in diameter) containing resistant microorganisms were prepared by overlaying 10 ml of the molten nutrient agar seeded with beta-lactam-resistant (beta-lactamase-producing) microorganisms, on the solid base layer of nutrient agar (pH 7.0) (15 ml) containing 50 μg/ml of penicillin G or cephaloridine. As described before, the antibiotic solutions to be tested were applied in a 25 μl amount on an 8 mm pulp disc and placed on the said assay dishes. After incubation for 18 hours at 35° C., the inhibition halos were measured and compared with the results on the corresponding assay dished containing neither penicillin G nor cephaloridine. From the data in Table 14, it is very clear that the combination of the tritylation product of antibiotic PS-5 at a concentration below the lower limit of disc assay, with penicillin G or cephaloridine, at a concentration below said limit, produced a significant halo of inhibition. This fact clearly proves the potentiation of the antibiotic activity of penicillin G or cephaloridine with the tritylation product of antibiotic PS-5.

A further data set has as its system Citrobacter freundii E-9. Nature of the data set: Potentiation disc assay of trityl ester (Table 14). It is filed as cell-based. Particulars: for Halo of inhibition Cephaloridine added: 50 μg/ml cephaloridine in base agar. The method, then: as §1
The subject of data set [4] is Enterobacter aerogenes E-19. As to the kind of experiment: MIC by broth dilution (Table 13). Particulars: Klebsiella aerogenes, E19, 20 h. The class given is cell-based. As for the experimental part: (§2) The MIC (minimum inhibitory concentration) values of the compound were determined on various pathogenic microorganisms including several resistant strains, utilizing the broth dilution method in BRAIN HEART INFUSION BROTH `Eiken` (EIKEN CHEMICAL CO., LTD.).
(§3) The results were read after incubation at 35° C. for 20 hours. The minimum inhibitory concentration (MIC) values means the lowest concentration unit of the tritylation product of the antibiotic PS-5 was no growth of the corresponding microorganism was observed under the above described conditions. As the control antibiotics,the solutions of ampicillin and cephaloridine were prepared in BRAIN HEART INFUSION BROTH `Eiken` (pH 7.0) at a concentration of 100 μg/ml and treated same as the test compound of the present invention.

For data set [5], the system named is Enterobacter cloacae E-16. As to the kind of experiment: MIC by broth dilution (Table 13). The class given is cell-based. Particulars: E16, 20 h. As for the experimental part: as §2, §3
(In general: Dilution methods test growth across graded concentrations, often in twofold steps.)

The next data set has as its system Serratia marcescens S-18. Nature of the data set: MIC by broth dilution (Table 13). It is filed as cell-based. To be noted: S18, 20 h. As for the experimental part: as §2, §3
The test system of data set [6] is Comamonas terrigena B-996. Nature of the data set: Disc bio-assay of antimicrobial activity, cephaloridine equivalent units. It is filed as cell-based. Particulars: Comamonas-cephaloridine units per mg of the final purified preparation. As for the experimental part:
The overnight culture of Comamonas terrigena B-996 on a nutrient agar slant was suspended in nutrient broth so as to give an optical cell density of 0.040 at 610 nm.
The seed suspension was added in a 1% amount to a molten agar medium containing 0.8% Kyokuto Nutrient Broth Powder (Kyokuto Pharmaceutical Industries Co.) and 1.0% Bacto-Agar (Difco Laboratories). Seven milliliters of the seeded molten agar medium were distributed in a Petri dish (9 cm in diameter) and solidified). This is defined as a Comamonas assay plate.
An 8 mm pulp disc was usually soaked with a sample solution to be assayed, left on a clean sheet of filter paper for a sufficient time to remove the excess solution and then transferred onto an assay plate. After incubation at 35° C. for 20 hours, the diameter of the observed inhibition zone was measured and compared with standard solutions of cephaloridine. The antimicrobial activity of the antibiotic PS-5 and related compounds is expressed as cephaloridine equivalent units/ml.
As well known to those skilled in the art, the assay standard curve varies to some extent, depending on the species of the test microorganisms. […]

For data set [7], the system named is Staphylococcus aureus Smith. Nature of the data set: In vivo activity of trityl ester in infected mice. The method, then: The in vivo activity of the tritylation product of the antibiotic PS-5 was measured in mice intraperitoneally infected with 5×10^3 cells/mouse of Staphylococcus aureus Smith. The trityl ester of the antibiotic PS-5 was subcutaneously injected just after infection.

Data set [8] in a line: pH and heat stability of trityl ester of antibiotic PS-5. The class given is physicochemical. To be noted: for remaining at 0.5 h: phosphate buffer, read-out: Residual activity. As for the experimental part: The trityl ester of antibiotic PS-5 was dissolved in one volume of methanol and then diluted with 9 volumes of distilled water as soon as possible to provide a solution of 125 CCU/ml. A tenth molar dipotassium phosphate solution was adjusted with 5 N phosphoric acid or 5 N sodium hydroxide to the indicated pH's in the range of 3-9.
To one milliliter each of the phosphate buffers, one milliliter each of the said solution of the trityl ester of antibiotic PS-5 was added and, if necessary, the pH value of the mixture was readjusted with phosphoric acid or sodium hydroxyde to the desired pH value. […]
The control solution (pH 7.0) was kept in an ice bath for the experimental period. The residual antibiotic activity was assayed by the routine disc assay method with Comamonas terrigena B-996 as the test microorganism.

In brackets after ≈: the same amount, converted by molar mass. Read-outs that look alike come from different tables or passages of the source.

What is called MIC is the lowest concentration found to suppress growth. A low value points to a more susceptible organism.

Turning to `CCC1C(=O)N2C(C(=O)O)=C(SCCNC(C)=O)CC12` (single isomer, unassigned) [Antibiotic PS-5], in data set [1], the “Therapeutic effect in infected mice” value was “marked therapeutic effect”. In addition, the “Synergism with penicillin G or cephaloridine” value with Proteus vulgaris P-5 [2] is “synergism between the antibiotic PS-5 and penicillin G or cephaloridine”.
`CCC1C(=O)N2C(C(=O)OC(c3ccccc3)(c3ccccc3)c3ccccc3)=C(SCCNC(C)=O)CC12` (single isomer, unassigned) [Trityl PS-5]: the zone of inhibition at 42 µg/mL in the data set on Proteus vulgaris P-5 [3] (P5, 18 h, Trityl PS-5 42 μg/ml, penicillin G series, read-out: Halo of inhibition Control) came to 0 mm. Further, the zone of inhibition at 50 µg/mL in the data set on Proteus vulgaris P-5 [3] (P5, 18 h, Trityl PS-5 50 μg/ml, cephaloridine series, read-out: Halo of inhibition Control) amounted to 0 mm; in the data set on Citrobacter freundii E-9 (E9, 18 h, Trityl PS-5 50 μg/ml, read-out: Halo of inhibition Control), 13 mm. Further, the zone of inhibition at 100 µg/mL turned out to be 11 mm in the data set on Proteus vulgaris P-5 [3] (P5, 18 h, Trityl PS-5 100 μg/ml, cephaloridine series, read-out: Halo of inhibition Control) and 16 mm with Citrobacter freundii E-9 (E9, 18 h, Trityl PS-5 100 μg/ml, read-out: Halo of inhibition Control). Besides, the “Halo of inhibition Penicillin G added” value in the data set with Proteus vulgaris P-5 [3] (Trityl PS-5 42 μg/ml, 50 μg/ml penicillin G in base agar) was determined as 27.0 mm. Further, the “Halo of inhibition Cephaloridine added” value in the data set with Proteus vulgaris P-5 [3] (Trityl PS-5 50 μg/ml) is listed as 15.0 mm; in the data set on Proteus vulgaris P-5 [3] (Trityl PS-5 100 μg/ml), 18.0 mm; in the data set with Citrobacter freundii E-9 (Trityl PS-5 50 μg/ml) it was 15.5 mm; in the data set on Citrobacter freundii E-9 (Trityl PS-5 100 μg/ml), 18.0 mm. For the same compound, the MIC in [4] is 8.7 µg/mL (≈ 16.1 µM); in data set [5] it was 10 µg/mL (≈ 18.5 µM); against Serratia marcescens S-18 it was 10 µg/mL (≈ 18.5 µM). In addition, the Specific activity in data set [6] is listed as 10,800 CCU/mg. Also, the 50% curative dose in data set [7] (male ddy mice, Staphylococcus aureus Smith, subcutaneous, in Comamonas-cephaloridine units) is 27,540 CCU/kg. Also, in data set [7] (mice infected with a pathogenic Gram-positive bacteria), the “Therapeutic effect in infected mice” value is reported as “marked therapeutic effect”. Besides, in data set [7] (sc, male ddy mice infected i.p. with 5×10^3 cells/mouse Staphylococcus aureus Smith, subcutaneously injected just after infection, read-out: 50% curative dose), the ED50 worked out at 2.55 mg/kg. In addition, in data set [8] (aqueous solution, pH 7.5 for 90 minutes at 60° C.), the Loss of activity entry is listed as “no substantial loss of activity”. Further, the remaining at 0.5 h in data set [8] (pH 3.0, 60° C. for 30 minutes, percent of control) is 0%; in [8] (pH 4.0, 60° C. for 30 minutes) it was 0%; in [8] (pH 5.0, 60° C. for 30 minutes) it was 6.5%; in [8] (pH 6.0, 60° C. for 30 minutes), 79%; in data set [8] (pH 7.0, 60° C. for 30 minutes) it was 100%; in data set [8] (pH 8.0, 60° C. for 30 minutes), 100%. Besides, the remaining at 0.5 h in [8] (pH 9.0, 60° C. for 30 minutes) amounted to 100%.
